Test results from article PMC9146163, “Novel Au Carbene Complexes as Promising Multi-Target Agents in Breast Cancer Treatment” (Pharmaceuticals, 2022).

How the values were obtained:
Assay type in all cases: cell-based, human
[1] = tested on: caspases 3/7, 8, and 9 in MCF-7 cells; test: Caspase-Glo assay, MCF-7; conditions: IC50 value, 24 h; vs vehicle
Experimental: (§1) The activities of caspases 3/7, 8, and 9 were measured by using the Caspase-Glo Assay according to the manufacturer’s guidelines (Caspase-Glo 3/7, 8, and 9 Assay Systems, Promega Corporation, Madison, WI, USA), as already described. The luminescence was detected in a plate-reading luminometer (Synergy H1 Hybrid Reader, BioTek) for 30 min to 3 h (λex/em = 490/570 nm). Results were reported as signal-to-noise ratio (background was determined from the culture medium without cells). The experiments were performed in triplicate.

[2] = tested on: vimentin in MCF-7 cells; test: Vimentin expression (immunofluorescence), MCF-7; conditions: fluorescence quantification; IC50 value, 24 h
Experimental: (§2) The MitoTracker Deep Red FM probe (MitoTracker Mitochondrion-Selective Probes, Invitrogen European Headquarters, Paisley, PA4 9RF, UK) was used for mitochondrial staining, as previously described. For immunofluorescence analysis, the cells were seeded and further processed, as reported by Iacopetta et al.. The primary antibodies used were: rabbit anti-β-Actin and vimentin (Santa Cruz Biotechnology, Dallas, TX, USA), mouse anti cytochrome c and NF-κB p65 (Abcam, Cambridge, UK), diluted 1:100 in bovine serum albumin (BSA) 2% overnight at 4 °C. The secondary antibodies were: Alexa Fluor® 488 conjugate goat-anti-rabbit and Alexa Fluor® 568 conjugate goat-anti-mouse (Thermo Fisher Scientific, MA, USA), diluted 1:500 and incubated for 2h at 37 °C. DAPI 0.2 μg/mL (Sigma Aldrich, Milan, Italy) was used for nuclei staining. […] All the images were acquired and processed using the LAS-X software.
Protein lysates underwent the SDS-PAGE process, as already defined. Then lysates were resolved on a 7.5% SDS polyacrylamide gel, transferred to a nitrocellulose membrane, and probed with antibodies against vimentin and GAPDH (Santa Cruz Biotechnology, Dallas, TX, USA). […] The images are representative of three independent experiments.

[3] = tested on: β-actin in MCF-7 cells; test: Actin immunofluorescence, MCF-7; conditions: 24 h; compound 6 at its IC50 value, LA 0.1 µM
Experimental: as §2

[4] = tested on: cytochrome c in MCF-7 cells; test: Mitochondria staining and cytochrome c detection, MCF-7; conditions: IC50 value, 24 h
Experimental: as §2

[5] = tested on: Hek-293 cells; test: MTT assay, normal Hek-293; conditions: up to the concentration of 200 μM
[6] = tested on: caspases 3/7, 8, and 9 in MDA-MB-231 cells; test: Caspase-Glo assay, MDA-MB-231; conditions: IC50 value, 24 h; vs vehicle
Experimental: as §1

| Structure (SMILES) | caspase-3 and -7 activity, MCF-7 [1] | caspase-8 activity, MCF-7 [1] | caspase-9 activity, MCF-7 [1] | reduction of vimentin expression with respect to the control, MCF-7 [2] | actin organization in MCF-7 cells [3] | cytochrome c localization, MCF-7 [4] | cytotoxicity against the normal Hek-293 cells (in words) [5] | caspase-3 and -7 activity, MDA-MB-231 [6] | caspase-8 activity, MDA-MB-231 [6] | caspase-9 activity, MDA-MB-231 [6] |
| --- | --- | --- | --- | --- | --- | --- | --- | --- | --- | --- |
| CC(=O)[O-].Cn1c(Cl)c(Cl)n(CC(O)c2ccccc2)[c]1=[Au+]=[c]1n(C)c(Cl)c(Cl)n1CC(O)c1ccccc1 (stereo not shown) [Compound 6, Bis [4,5-dichloro-(N-methyl, N’(2-hydroxy-2-phenyl-ethyl)imidazole-2-ylidine]gold(I)] acetate] | clear increase | significant rise | no increase | two-fold | actin bundles appeared thicker and dramatically packed into the cytoplasm | cytochrome c is localized within mitochondria | – | – | – | – |
| Cn1ccn(CC([O-])c2ccccc2)[c]1=[Au+]=[c]1n(C)ccn1CC([O-])c1ccccc1.[Cl-].[Na+].[Na+] (stereo not shown) [Compound 1] | – | – | – | – | – | – | complete lack of cytotoxicity | clear increase | significant rise | no increase |
